According to patent US12473296B2, “Perk inhibiting compounds” (HiberCell, Inc., priority 2019, dated 2025):

The compounds below were run against PERK (Homo sapiens (Human), UniProt Q9NZJ5) (assay: PERK cellular assay (TR-FRET, HEK293-EGFP-eIF2α cells, tunicamycin-induced ER stress)). Conditions: tunicamycin 2 hours, read-out: Cellular IC50 (μM) (EIF2a).
Format: cell-based
Procedure: Stable cell lines were created in HEK293 cells using lentiviral particles harboring an expression vector for GFP-eIF2α. Cells were selected using puromycin and enriched using fluorescence activated cell sorting against GFP. HEK293-EGFP-eIF2α cells were plated at 5000 cells/well in 384-well assay plates and incubated overnight at 37° C., 5% CO2. Inhibitor compounds were added to the wells by Echo acoustic dispensing and incubated for 30 minutes at 37° C., 5% CO2 prior to induction of ER stress by addition of tunicamycin to […] for 2 hours. Cells were lysed and TR-FRET was measured in an EnVision plate reader (PerkinElmer). FRET ratio data was normalized to signal from lysates treated with DMSO vehicle control and plotted as percent inhibition against 10-point; 3-fold dilution series of inhibitors. IC50 values were calculated using 4-parameter logistical fitting in XLFit.

Chain of PERK (Q9NZJ5 30-1116): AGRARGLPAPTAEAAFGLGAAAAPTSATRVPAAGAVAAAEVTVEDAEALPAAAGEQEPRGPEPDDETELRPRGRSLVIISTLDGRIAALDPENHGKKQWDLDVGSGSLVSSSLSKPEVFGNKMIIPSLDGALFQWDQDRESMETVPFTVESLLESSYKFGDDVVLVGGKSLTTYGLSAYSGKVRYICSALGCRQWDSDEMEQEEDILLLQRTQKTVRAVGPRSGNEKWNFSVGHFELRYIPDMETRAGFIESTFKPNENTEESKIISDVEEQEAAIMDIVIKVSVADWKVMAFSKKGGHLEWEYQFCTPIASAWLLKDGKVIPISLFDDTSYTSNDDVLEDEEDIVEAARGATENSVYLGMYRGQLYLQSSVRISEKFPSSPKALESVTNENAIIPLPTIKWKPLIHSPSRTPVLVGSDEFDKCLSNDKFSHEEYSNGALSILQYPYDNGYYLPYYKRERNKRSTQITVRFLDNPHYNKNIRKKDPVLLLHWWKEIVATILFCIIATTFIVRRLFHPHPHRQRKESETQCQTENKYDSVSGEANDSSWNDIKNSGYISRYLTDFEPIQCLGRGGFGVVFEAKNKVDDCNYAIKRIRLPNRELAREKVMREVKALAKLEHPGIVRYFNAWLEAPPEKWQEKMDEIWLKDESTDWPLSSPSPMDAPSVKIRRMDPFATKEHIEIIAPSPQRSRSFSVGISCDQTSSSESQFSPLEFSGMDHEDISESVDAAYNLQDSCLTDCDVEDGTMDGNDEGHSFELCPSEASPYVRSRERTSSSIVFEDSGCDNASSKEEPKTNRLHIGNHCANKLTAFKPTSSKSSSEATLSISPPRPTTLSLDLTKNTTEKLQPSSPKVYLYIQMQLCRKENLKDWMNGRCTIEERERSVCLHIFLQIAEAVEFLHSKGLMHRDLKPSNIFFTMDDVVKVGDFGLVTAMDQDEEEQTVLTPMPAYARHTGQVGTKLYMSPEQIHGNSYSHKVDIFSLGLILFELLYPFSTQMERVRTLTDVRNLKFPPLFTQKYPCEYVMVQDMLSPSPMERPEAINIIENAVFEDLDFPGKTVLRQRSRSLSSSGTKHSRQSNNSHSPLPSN

Compound	IC50
CCc1cc(NC(=O)C(O)c2ccccc2C)ccc1-c1cnc(N)c(C(=O)NC(C)C)c1 (single isomer, unassigned) [Example 104, 2-amino-5-(2-ethyl-4-(2-hydroxy-2-(o-tolyl)acetamido)phenyl)-N-isopropylnicotinamide]	0.051 to 0.1 µM
CCc1cc(NC(=O)C(O)c2ccccc2C)ccc1-c1cnc(N)c(C(=O)NC(C)C)c1 (single isomer, unassigned) [Example 105, 2-amino-5-(2-ethyl-4-(2-hydroxy-2-(o-tolyl)acetamido)phenyl)-N-isopropylnicotinamide]	0.501 to 1 µM
Cc1cc(NC(=O)C(O)c2cc(F)cc(F)c2)ccc1-c1cnc(N)c(C(=O)NC2CCOCC2)c1 (stereo not drawn) [Example 50, 2-amino-5-(4-(2-(3,5-difluorophenyl)-2-hydroxyacetamido)-2-methylphenyl)-N-(tetrahydro-2H-pyran-4-yl)nicotinamide]	0.051 to 0.1 µM
COCCNC(=O)c1cc(-c2ccc(NC(=O)C(O)c3cc(F)cc(F)c3)cc2C)cnc1N (stereo not drawn) [Example 54, 2-amino-5-(4-(2-(3,5-difluorophenyl)-2-hydroxyacetamido)-2-methylphenyl)-N-(2-methoxyethyl) nicotinamide]	0.051 to 0.1 µM
COCCNC(=O)c1cc(-c2ccc(NC(=O)C(O)c3cc(F)cc(F)c3)cc2C)cnc1N (stereo not drawn) [Example 55, 2-amino-5-(4-(2-(3,5-difluorophenyl)-2-hydroxyacetamido)-2-methylphenyl)-N-(2-methoxyethyl) nicotinamide]	1 to 2 µM
Cc1cc(NC(=O)C(O)c2ccccc2C)ccc1-c1cnc(N)c(C(=O)NC(C)C)c1 (stereo not drawn) [Example 64, 2-amino-5-(4-(2-hydroxy-2-(o-tolyl)acetamido)-2-methylphenyl)-N-isopropylnicotinamide]	0.101 to 0.25 µM
Cc1cc(NC(=O)C(O)c2ccccc2C)ccc1-c1cnc(N)c(C(=O)NC(C)C)c1 (stereo not drawn) [Example 65, 2-amino-5-(4-(2-hydroxy-2-(o-tolyl)acetamido)-2-methylphenyl)-N-isopropylnicotinamide]	2 to 3 µM
Cc1cc(NC(=O)C(O)c2cccc(C(F)(F)F)c2)ccc1-c1cnc(N)c(C(=O)NC(C)C)c1 (stereo not drawn) [Example 70, 2-amino-5-(4-(2-hydroxy-2-(3-(trifluoromethyl)phenyl)acetamido)-2-methylphenyl)-N-isopropylnicotinamide]	0.001 to 0.025 µM
Cc1cc(NC(=O)C(O)c2cccc(C(F)(F)F)c2)ccc1-c1cnc(N)c(C(=O)NC(C)C)c1 (stereo not drawn) [Example 71, 2-amino-5-(4-(2-hydroxy-2-(3-(trifluoromethyl)phenyl)acetamido)-2-methylphenyl)-N-isopropylnicotinamide]	0.501 to 1 µM
Cc1ccccc1C(O)C(=O)Nc1ccc(-c2cnc(N)c(C(=O)NC(C)C)c2)c(Cl)c1 (stereo not drawn) [Example 90, 2-amino-5-(2-chloro-4-(2-hydroxy-2-(o-tolyl)acetamido)phenyl)-N-isopropylnicotinamide]	0.051 to 0.1 µM
Cc1ccccc1C(O)C(=O)Nc1ccc(-c2cnc(N)c(C(=O)NC(C)C)c2)c(Cl)c1 (stereo not drawn) [Example 91, 2-amino-5-(2-chloro-4-(2-hydroxy-2-(o-tolyl)acetamido)phenyl)-N-isopropylnicotinamide]	0.251 to 0.5 µM
Cc1cccc(C(O)C(=O)Nc2ccc(-c3cnc(N)c(C(=O)NC(C)C)c3)c(Cl)c2)c1 (stereo not drawn) [Example 92, 2-amino-5-(2-chloro-4-(2-hydroxy-2-(m-tolyl)acetamido)phenyl)-N-isopropylnicotinamide]	0.001 to 0.025 µM
Cc1cccc(C(O)C(=O)Nc2ccc(-c3cnc(N)c(C(=O)NC(C)C)c3)c(Cl)c2)c1 (stereo not drawn) [Example 93, 2-amino-5-(2-chloro-4-(2-hydroxy-2-(m-tolyl)acetamido)phenyl)-N-isopropylnicotinamide]	0.101 to 0.25 µM

Next, values leading:

IC50	Compound
0.501 to 1 µM	Cc1cc(NC(=O)C(O)c2cc(F)cc(F)c2)ccc1-c1cnc(N)c(C(=O)NC2CCOCC2)n1 (single isomer, unassigned) [Example 144, 3-amino-6-(4-(2-(3,5-difluorophenyl)-2-hydroxyacetamido)-2-methylphenyl)-N-(tetrahydro-2H-pyran-4-yl)pyrazine-2-carboxamide]
0.051 to 0.1 µM	Cc1cc(NC(=O)C(O)c2cc(F)cc(F)c2)ccc1-c1cnc(N)c(C(=O)NC2CCOCC2)n1 (single isomer, unassigned) [Example 145, 3-amino-6-(4-(2-(3,5-difluorophenyl)-2-hydroxyacetamido)-2-methylphenyl)-N-(tetrahydro-2H-pyran-4-yl)pyrazine-2-carboxamide]
0.026 to 0.05 µM	COCCNC(=O)c1nc(-c2ccc(NC(=O)C(O)c3cc(F)cc(F)c3)cc2C)cnc1N (single isomer, unassigned) [Example 147, 3-amino-6-(4-(2-(3,5-difluorophenyl)-2-hydroxyacetamido)-2-methylphenyl)-N-(2-methoxyethyl) pyrazine-2-carboxamide]
0.501 to 1 µM	COCCNC(=O)c1nc(-c2ccc(NC(=O)C(O)c3cc(F)cc(F)c3)cc2C)cnc1N (single isomer, unassigned) [Example 148, 3-amino-6-(4-(2-(3,5-difluorophenyl)-2-hydroxyacetamido)-2-methylphenyl)-N-(2-methoxyethyl) pyrazine-2-carboxamide]
0.501 to 1 µM	Cc1cc(NC(=O)C(O)c2cc(F)cc(F)c2)ccc1-c1cnc(N)c(C(=O)NC2CCOCC2)c1 (stereo not drawn) [Example 51, 2-amino-5-(4-(2-(3,5-difluorophenyl)-2-hydroxyacetamido)-2-methylphenyl)-N-(tetrahydro-2H-pyran-4-yl)nicotinamide]
0.026 to 0.05 µM	Cc1cc(NC(=O)C(O)c2cc(F)cc(F)c2)ccc1-c1cnc(N)c(C(=O)NC2CCC2)n1 (stereo not drawn) [Example 140, 3-amino-N-cyclobutyl-6-(4-(2-(3,5-difluorophenyl)-2-hydroxyacetamido)-2-methylphenyl) pyrazine-2-carboxamide]
0.101 to 0.25 µM	Cc1cc(NC(=O)C(O)c2cc(F)cc(F)c2)ccc1-c1cnc(N)c(C(=O)NC2CCC2)n1 (stereo not drawn) [Example 141, 3-amino-N-cyclobutyl-6-(4-(2-(3,5-difluorophenyl)-2-hydroxyacetamido)-2-methylphenyl) pyrazine-2-carboxamide]
1 to 2 µM	Cc1cc(NC(=O)C(O)c2cc(F)cc(F)c2)ccc1-c1cnc(N)c(C(=O)NC2COC2)n1 (stereo not drawn) [Example 142, 3-amino-6-(4-(2-(3,5-difluorophenyl)-2-hydroxyacetamido)-2-methylphenyl)-N-(oxetan-3-yl)pyrazine-2-carboxamide]
0.026 to 0.05 µM	Cc1cc(NC(=O)C(O)c2cc(F)cc(F)c2)ccc1-c1cnc(N)c(C(=O)NC2COC2)n1 (stereo not drawn) [Example 143, 3-amino-6-(4-(2-(3,5-difluorophenyl)-2-hydroxyacetamido)-2-methylphenyl)-N-(oxetan-3-yl)pyrazine-2-carboxamide]
0.101 to 0.25 µM	CC(C)NC(=O)c1nc(-c2ccc(NC(=O)C(O)c3cc(F)cc(F)c3)cc2Cl)cnc1N (stereo not drawn) [Example 162, 3-amino-6-(2-chloro-4-(2-(3,5-difluorophenyl)-2-hydroxyacetamido)phenyl)-N-isopropylpyrazine-2-carboxamide]
0.051 to 0.1 µM	CC(C)NC(=O)c1nc(-c2ccc(NC(=O)C(O)c3cc(F)cc(F)c3)cc2Cl)cnc1N (stereo not drawn) [Example 163, 3-amino-6-(2-chloro-4-(2-(3,5-difluorophenyl)-2-hydroxyacetamido)phenyl)-N-isopropylpyrazine-2-carboxamide]
